From patent publication US8993624B2, “Method of preventing and treating inflammatory diseases and disorders with abscisic acid” (Virginia Tech Intellectual Properties, Inc., priority 2010, dated 2015)

Test system: PPAR γ
Format: cell-based

CC1=CC(=O)CC(C)(C)C1(O)/C=C/C(C)=C\C(=O)O (single isomer, unassigned; (-)) [(−) ABA]
concentration inducing maximal PPAR γ activation (1.25-10 μM tested, 20 hours): 2.5 µM
PPAR γ activation (relative luciferase activity) (RAW 264.7, 20 hours): activated PPAR γ to a similar degree
